What is called IC50 is the concentration that inhibits the measured activity by half.

The values below come from patent publication US20140315886A1, “QUINAZOLINES AS THERAPEUTIC COMPOUNDS AND RELATED METHODS OF USE” (OTSUKA PHARMACEUTICAL CO., LTD., priority 2011, published 2014).

The experiment addresses T1, purified STEP46 enzyme (Homo sapiens, UniProt P54829).
T1 sequence (P54829 197-565 limits assumed): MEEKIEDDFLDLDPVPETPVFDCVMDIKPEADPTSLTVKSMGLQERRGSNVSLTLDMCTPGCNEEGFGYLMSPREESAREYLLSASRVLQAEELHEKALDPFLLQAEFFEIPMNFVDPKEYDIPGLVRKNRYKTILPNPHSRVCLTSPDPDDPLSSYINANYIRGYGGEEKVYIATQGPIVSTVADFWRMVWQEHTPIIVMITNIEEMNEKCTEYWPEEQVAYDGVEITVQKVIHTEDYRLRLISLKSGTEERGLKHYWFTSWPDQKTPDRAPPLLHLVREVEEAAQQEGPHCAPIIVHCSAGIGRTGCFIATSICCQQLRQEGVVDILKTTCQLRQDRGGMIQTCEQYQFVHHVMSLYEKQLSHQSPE
Description: STEP46 biochemical assay (DiFMUP fluorescence phosphatase assay). Conditions: DiFMUP 10 μM, read-out: STEP IC50. The gist of the method:
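Purified human STEP46 preincubated 30 min at room temperature with compounds in Hepes/DTT/Brij35 buffer (2% DMSO final), then reacted with 10 μM DiFMUP for 90 min at 27°C; fluorescence read at 360/460 nm. IC50 from four-parameter fit; activation shown as negative % inhibition at 25, 50, 100 uM.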
As for `CNc1nc(-c2cccnc2)nc2ccc(-c3ccc4[nH]c(=O)[nH]c4c3)cc12` [Compound 168], the IC50 is less than 1000 nM. On to `CNc1nc(-c2cccnc2)nc2ccc(-c3cccc(-c4ncco4)c3)cc12` [Compound 250], for which the IC50 was less than 1000 nM. With `CCOc1ccc2nc(-c3ccnnc3)nc(Nc3ccccc3C(N)=O)c2c1` [Compound 71], the IC50 was 1000 to 10000 nM. Take `CNc1nc(-c2cccnc2)nc2c(OC)cc(-c3ccc(Cl)cc3)cc12` [Compound 307]: the IC50 was 1000 to 10000 nM. As for `CNc1nc(-c2cccnc2)nc2cc(-c3c(F)ccc(F)c3F)ccc12` [Compound 453], the IC50 was 1000 to 10000 nM. For the molecule `CC(Nc1nc(-c2cccnc2)nc2cc(-c3cc(F)cc(F)c3)ccc12)c1ccccn1` (centres unmarked) [Compound 370], the IC50 is 1000 to 10000 nM.

Consider `Fc1ccc(-c2ccc3nc(-c4cccnc4)nc(-c4cncs4)c3c2)c(F)c1` [Compound 417], for which the IC50 is less than 1000 nM. Take `CNc1nc(-c2cccnc2)nc2cc(F)c(-c3ccccc3OC)cc12` [Compound 593]: the IC50 was greater than 10000 nM. Regarding `CNc1nc(-c2cccnc2)nc2cc(-c3c(F)ccc(F)c3C)ccc12` [Compound 323], the IC50 was greater than 10000 nM.

Regarding `CNc1nc(-c2cccnc2)nc2cc(F)c(-c3ccc(F)cc3)cc12` [Compound 587], the IC50 is 1000 to 10000 nM. As to `CNc1nc(-c2cccnc2)nc2c(F)cc(-c3cccc(OC)c3)cc12` [Compound 574], the IC50 lay within 1000 to 10000 nM.

`CNc1nc(-c2cccnc2)nc2cc(OC(F)(F)F)c(-c3cccc(F)c3F)cc12` [Compound 404]: the IC50 was 1000 to 10000 nM. Consider `CC(Nc1nc(-c2cccnc2)nc2ccc(-c3ccc(F)cc3F)cc12)c1ccccc1` (centres unmarked) [Compound 607], for which the IC50 fell in the range of 1000 to 10000 nM. Turning to `COc1ccc2nc(-c3cccnc3)nc(Nc3ccnc(F)c3)c2c1` [Compound 43], the IC50 is less than 1000 nM. Turning to `Clc1ccc2c(c1)CCN2c1nc(-c2cccnc2)nc2cc(-c3cncnc3)ccc12` [Compound 101], the IC50 is less than 1000 nM. Turning to `Fc1ccccc1-c1ccc2c(N3CCc4cc(Cl)ccc43)nc(-c3cccnc3)nc2c1` [Compound 95], the IC50 was in the range of 1000 to 10000 nM. Take `Fc1ccc(-c2ccc3nc(-c4cccnc4)nc(-c4cscn4)c3c2)c(F)c1` [Compound 421, 4-(6-(2,4-difluorophenyl)-2-(pyridin-3-yl)quinazolin-4-yl)thiazole]: the IC50 was less than 1000 nM. As to `O=[N+]([O-])c1ccc2c(c1)CCN2c1nc(-c2cccnc2)nc2cc(-c3cccnc3)ccc12` [Compound 106], the IC50 was less than 1000 nM. For `CNc1nc(-c2cccnc2)nc2c(F)cc(-c3cccc(C#N)c3)cc12` [Compound 570] the value was less than 1000 nM. As for `CCOc1cccc(-c2ccc3nc(-c4cccnc4)nc(NC)c3c2)c1F` [Compound 242], the IC50 is greater than 10000 nM. For `Clc1ccc2c(c1)CCN2c1nc(-c2cccnc2)nc2cc(-c3ccncc3)ccc12` [Compound 100] the value was 1000 to 10000 nM; for `CNc1nc(-c2cccnc2)nc2cc(-c3cccc(C#N)c3)c(F)cc12` [Compound 556], 1000 to 10000 nM; for `CNc1nc(-c2cccnc2)nc2c(OC)cc(-c3ccc(C#N)cc3)cc12` [Compound 260], greater than 10000 nM. For the molecule `CNc1nc(-c2cccnc2)nc2ccc(-c3nnc(C)s3)cc12` [Compound 472], the IC50 was greater than 10000 nM.

As to `Clc1ccc2c(c1)CCN2c1nc(-c2cccnc2)nc2cc(-c3cccnc3)ccc12` [Compound 99], the IC50 was less than 1000 nM. Regarding `CNc1nc(-c2cccnc2)nc2c(-c3ccc(F)cc3F)ccc(OC)c12` [Compound 490], the IC50 lay within 1000 to 10000 nM. Regarding `CN(C)c1nc(-c2cccnc2)nc2cc(-c3cc(F)c(F)c(F)c3)ccc12` [Compound 313], the IC50 was 1000 to 10000 nM.

As for `CNc1nc(-c2cccnc2)nc2c(F)cc(-c3ccc(C#N)cc3)cc12` [Compound 571], the IC50 lay in the range of 1000 to 10000 nM. For `COc1cc(-c2ccc(F)cc2F)cc2c(N3CC(OC)C3)nc(-c3cccnc3)nc12` [Compound 741], the IC50 is 1000 to 10000 nM. In the case of `CNc1nc(-c2cccnc2)nc2ccc(-c3cccc(F)c3)c(F)c12` [Compound 223], the IC50 lay within 1000 to 10000 nM.

Take `CNc1nc(-c2cccnc2)nc2cc(-c3cccc(F)c3C)ccc12` [Compound 324]: the IC50 was in the range of 1000 to 10000 nM.

As to `COc1ccc2nc(-c3cccnc3)nc(Nc3ccc4nc(C)oc4c3)c2c1` [Compound 39], the IC50 fell in the range of 1000 to 10000 nM. In the case of `CNc1nc(-c2cccnc2)nc2c(-c3ccc(F)c(F)c3)cccc12` [Compound 278], the IC50 lay in the range of 1000 to 10000 nM.

Take `CNc1nc(-c2cccnc2)nc2ccc(-c3ccc4c(c3)SCC(=O)N4)cc12` [Compound 471]: the IC50 lay within 1000 to 10000 nM. For `CNc1nc(-c2cccnc2)nc2cc(F)c(-c3cccc(F)c3)cc12` [Compound 584], the IC50 is 1000 to 10000 nM. On to `CNc1nc(-c2cccnc2)nc2c(-c3cc(F)cc(F)c3)cccc12` [Compound 277], for which the IC50 is greater than 10000 nM. For `CNc1nc(-c2cccnc2)nc2c(F)c(-c3ccc(F)c(C)c3)ccc12` [Compound 541] the value was 1000 to 10000 nM; for `CNc1nc(-c2cccnc2)nc2c(-c3cccc(F)c3F)ccc(OC)c12` [Compound 492], 1000 to 10000 nM; for `CNc1nc(-c2cccnc2)nc2ccc(-c3ccc(F)cc3F)c(OC)c12` [Compound 487], 1000 to 10000 nM. For `CNc1nc(-c2cccnc2)nc2c(OC)cc(-c3ccc(F)cc3)cc12` [Compound 259], the IC50 is greater than 10000 nM.

For `Clc1ccc2c(c1)N(c1nc(-c3cccnc3)nc3ccc(Br)cc13)CC2` [Compound 23], the IC50 is 1000 to 10000 nM. Regarding `COc1ccc2nc(-c3cccnc3)nc(Nc3cncc(F)c3)c2c1` [Compound 25], the IC50 lay within 1000 to 10000 nM. In the case of `CNc1nc(-c2cccnc2)nc2c(-c3cc(F)cc(F)c3)ccc(OC)c12` [Compound 491], the IC50 lay in the range of 1000 to 10000 nM. As for `CNc1nc(-c2cccnc2)nc2c(F)cc(-c3ccc(OC)cc3)cc12` [Compound 573], the IC50 is 1000 to 10000 nM. For `CNc1nc(-c2cccnc2)nc2c(OC)cc(-c3ccccc3Cl)cc12` [Compound 306] the value was 1000 to 10000 nM; for `Cc1ccc2c(c1)CCN2c1nc(-c2cccnc2)nc2ccc(-c3ccc(F)cc3F)cc12` [Compound 73], 1000 to 10000 nM. With `CNc1nc(-c2cccnc2)nc2c(F)c(-c3cccc(C#N)c3)ccc12` [Compound 511], the IC50 was in the range of 1000 to 10000 nM. `CNc1nc(-c2cccnc2)nc2c(F)c(-c3ccc(C)cc3)ccc12` [Compound 526]: the IC50 lay within 1000 to 10000 nM. For `CNc1nc(-c2cccnc2)nc2ccc(-c3ccc(F)cc3F)c(F)c12` [Compound 222], the IC50 was in the range of 1000 to 10000 nM. In the case of `CNc1nc(-c2cccnc2)nc2ccc(-c3cccc(C(=O)Nc4nncs4)c3)cc12` [Compound 447], the IC50 was less than 1000 nM. `CNc1nc(-c2cccnc2)nc2cc(-c3cc(F)nc(F)c3)ccc12` [Compound 284]: the IC50 was less than 1000 nM.

On to `CNc1nc(-c2cccnc2)nc2cc(-c3cccc(F)c3F)c(F)cc12` [Compound 557], for which the IC50 lay in the range of 1000 to 10000 nM. Consider `Cc1c(-c2cncnc2)ccc2c(N3CCc4cc(Cl)ccc43)nc(-c3cccnc3)nc12` [Compound 115], for which the IC50 is less than 1000 nM. In the case of `CNc1nc(-c2cccnc2)nc2c(F)c(-c3cccc(F)c3F)ccc12` [Compound 515], the IC50 lay within 1000 to 10000 nM.

`Clc1ccc2c(c1)CCN2c1nc(-c2cccnc2)nc2cc(-c3ccccc3Cl)ccc12` [Compound 111]: the IC50 was greater than 10000 nM. In the case of `CNc1nc(-c2cccnc2)nc2ccc(-c3ccc(S(C)(=O)=O)c(C(F)(F)F)c3)cc12` [Compound 199], the IC50 lay in the range of 1000 to 10000 nM.

Regarding `CNc1nc(-c2cnccn2)nc2ccc(-c3ccc(F)c(F)c3)c(F)c12` [Compound 977], the IC50 was 1000 to 10000 nM. Turning to `CNc1nc(-c2cccnc2)nc2c(F)c(-c3cccc(C)c3)ccc12` [Compound 525], the IC50 is 1000 to 10000 nM.

As for `Cc1c(-c2cccnc2)ccc2c(N3CCc4cc(Cl)ccc43)nc(-c3cccnc3)nc12` [Compound 114], the IC50 was less than 1000 nM.
